Activity calls are given as the source filed them. The rule behind the calls is not given here.
Tests used:
Bacillus cereus [1] = assay: Inhibition of Bacillus cereus sphingomyelinase expressed in Bacillus subtilis ISW1214 assessed as sphingomyeline liposome degradation at 20 to 100 uM after 30 mins
[2] = Inhibition of Bacillus cereus sphingomyelinase expressed in Bacillus subtilis ISW1214 assessed as [14C]sphingomyeline hydrolysis after 30 mins by liquid scintillation counting
Bacillus cereus [3] = assay: Inhibition of Bacillus cereus sphingomyelinase expressed in Bacillus subtilis ISW1214 assessed as sphingomyeline liposome degradation after 30 mins
[4] = Competitive inhibition of Bacillus cereus sphingomyelinase expressed in Bacillus subtilis ISW1214 after 30 mins by Lineweaver-Burke plot analysis

inhibition (Bacillus cereus [1]) | IC50 [2] [µM] | inhibition (Bacillus cereus [3]) | Ki [4] [µM] | Compound
inactive | – | – | – | CCCCCCCCCCCCC/C=C/[C@@H](OCc1cccc(-c2ccccn2)n1)[C@H](CO)NC(=O)CCCCC
inactive | – | – | – | c1ccc(-c2ccccn2)nc1
– | 1.2 | Dose-dependent effect | 5.2 | CCCCCCCCCCCCC/C=C/[C@@H](O)[C@H](COCc1cccc(-c2ccccn2)n1)NC(=O)CCCCC

Source: ChEMBL document CHEMBL1177793, “Synthesis and evaluation of novel phosphate ester analogs as neutral sphingomyelinase inhibitors” (Bioorg Med Chem Lett, 2010)
